In patent US6770597B2, “Benzohydrazide derivatives as herbicides and desiccant compositions containing them” (Ishihara Sangyo Kaisha, Ltd., priority 2002, dated 2004):

Legend:
Assay type in all cases: in vivo
[1] = tested on: lambsquarters (Chenopodium album, CHEAL); assay: Greenhouse herbicide screen, pre-emerge application, phytotoxicity rating; conditions: PRE emergent, 14 days after application, rating scale 0-100
Description: (§1) A standard greenhouse herbicide activity screening system was used to evaluate the herbicidal efficacy and crop safety of these test compounds. Seven broadleaf weed species including redroot pigweed (Amaranthus retrofiexus, AMARE), velvetleaf (Abutilon theophrasti, ABUTH), sicklepod (Cassia obtusifolia, CASOB), ivyleaf morningglory (Ipomoea hederacea, IPOHE), lambsquarters (Chenopodium album, CHEAL), common ragweed (Ambrosia artemisiifolia L., AMBEL), and cocklebur (Xanthium strumarium, XANST) were used as test species. Four grass weed species including green foxtail (Setaria viridis, SETVI), barnyardgrass (Echinochloa crus-galli, ECHCG), johnsongrass (Sorghum halepense, SORHA), and large crabgrass (Digitaria sanguinalis, DIGSA) were also used. In addition, four crop species, field corn (Zea mays L., var. Dekalb 535, CORN), soybean (Glycine max L., var. Pella 86, SOY), upland rice (Oryza sp., var.Cocodrie, RICE) and wheat (Triticum aestivum L.) were included.
(§2) All plants were grown in 10 cm square plastic pots which were filled with a sandy loam soil mix. For pre-emerge tests, seeds were planted one day prior to application of the test compounds. For post-emerge tests, seeds were planted 8-21 days prior to the test to allow emergence and good foliage development prior to application of the test substances. At the time of the post-emerge application, plants of all species were usually at the 2-3 leaf stage of development.
(§3) All test compounds were dissolved in acetone and applied to the test units in a volume of 187 l/ha. Test materials were applied at rates ranging from 15 g ai/ha to 1000 g ai/ha using a track sprayer equipped with a TJ8001E even flow flat fan spray nozzle. Plants were arranged on a shelf so that the top of the canopy (post-emerge) or top of the soil surface (pre-emerge) was 40-45 cm below the nozzle. Pressurized air was used to force the test solution through the nozzle as it was mechanically advanced (via electrically driven chain drive) over the top of all test plants/pots. This application simulates a typical commercial field herbicide application.
(§4) Pre-emergence tests were top watered immediately after treatment to incorporate the test materials, then routinely top-watered for normal growth. Post-emerge test units were always bottom-watered.
(§5) At 14 days after application of the test materials, phytotoxicity ratings were recorded. A rating scale of 0-100 was used as previously described in Research Methods in Weed Science, 2nd edition, B. Truelove, Ed., Southern Weed Science Society, Auburn University, Auburn, Ala., 1977. Briefly, “0” corresponds to no damage and “100” corresponds to complete death of all plants in the test unit. This scale was used both to determine efficacy against weed species and damage to crop species. Herbicide activity data for various compounds of this invention, which are shown by compound No. in Tables 1-12, are shown in Tables 13 and 14.

[2] = tested on: large crabgrass (Digitaria sanguinalis, DIGSA); assay: as above; conditions: PRE emergent, 14 days after application, rating scale 0-100
Description: as §1, §2, §3, §4, §5

[3] = tested on: green foxtail (Setaria viridis, SETVI); assay: as above; conditions: PRE emergent, 14 days after application, rating scale 0-100
Description: as §1, §2, §3, §4, §5

[4] = tested on: ivyleaf morningglory (Ipomoea hederacea, IPOHE); assay: as above; conditions: PRE emergent, 14 days after application, rating scale 0-100
Description: as §1, §2, §3, §4, §5

[5] = tested on: velvetleaf (Abutilon theophrasti, ABUTH); assay: as above; conditions: PRE emergent, 14 days after application, rating scale 0-100
Description: as §1, §2, §3, §4, §5

[6] = tested on: johnsongrass (Sorghum halepense, SORHA); assay: as above; conditions: PRE emergent, 14 days after application, rating scale 0-100
Description: as §1, §2, §3, §4, §5

[7] = tested on: barnyardgrass (Echinochloa crus-galli, ECHCG); assay: as above; conditions: PRE emergent, 14 days after application, rating scale 0-100
Description: as §1, §2, §3, §4, §5

[8] = tested on: common ragweed (Ambrosia artemisiifolia L., AMBEL); assay: as above; conditions: PRE emergent, 14 days after application, rating scale 0-100
Description: as §1, §2, §3, §4, §5

[9] = tested on: cocklebur (Xanthium strumarium, XANST); assay: as above; conditions: PRE emergent, 14 days after application, rating scale 0-100
Description: as §1, §2, §3, §4, §5

[10] = tested on: redroot pigweed (Amaranthus retrofiexus, AMARE); assay: as above; conditions: PRE emergent, 14 days after application, rating scale 0-100
Description: as §1, §2, §3, §4, §5

[11] = tested on: sicklepod (Cassia obtusifolia, CASOB); assay: as above; conditions: PRE emergent, 14 days after application, rating scale 0-100
Description: as §1, §2, §3, §4, §5

[12] = tested on: lambsquarters (Chenopodium album, CHEAL); assay: Greenhouse herbicide screen, post-emerge application, phytotoxicity rating; conditions: POST emergent, 14 days after application, scale 0-100
Description: as §1, §2, §3, §4, §5

[13] = tested on: large crabgrass (Digitaria sanguinalis, DIGSA); assay: as above; conditions: POST emergent, 14 days after application, scale 0-100
Description: as §1, §2, §3, §4, §5

[14] = tested on: green foxtail (Setaria viridis, SETVI); assay: as above; conditions: POST emergent, 14 days after application, scale 0-100
Description: as §1, §2, §3, §4, §5

[15] = tested on: ivyleaf morningglory (Ipomoea hederacea, IPOHE); assay: as above; conditions: POST emergent, 14 days after application, scale 0-100
Description: as §1, §2, §3, §4, §5

[16] = tested on: velvetleaf (Abutilon theophrasti, ABUTH); assay: as above; conditions: POST emergent, 14 days after application, scale 0-100
Description: as §1, §2, §3, §4, §5

[17] = tested on: johnsongrass (Sorghum halepense, SORHA); assay: as above; conditions: POST emergent, 14 days after application, scale 0-100
Description: as §1, §2, §3, §4, §5

[18] = tested on: barnyardgrass (Echinochloa crus-galli, ECHCG); assay: as above; conditions: POST emergent, 14 days after application, scale 0-100
Description: as §1, §2, §3, §4, §5

[19] = tested on: common ragweed (Ambrosia artemisiifolia L., AMBEL); assay: as above; conditions: POST emergent, 14 days after application, scale 0-100
Description: as §1, §2, §3, §4, §5

[20] = tested on: cocklebur (Xanthium strumarium, XANST); assay: as above; conditions: POST emergent, 14 days after application, scale 0-100
Description: as §1, §2, §3, §4, §5

[21] = tested on: redroot pigweed (Amaranthus retrofiexus, AMARE); assay: as above; conditions: POST emergent, 14 days after application
Description: as §1, §2, §3, §4, §5

[22] = tested on: sicklepod (Cassia obtusifolia, CASOB); assay: as above; conditions: POST emergent, 14 days after application, scale 0-100
Description: as §1, §2, §3, §4, §5

[23] = 63 g ai/ha, scale 0-100 (0 no damage, 100 complete death)

COC(=NN=C(C(C)(C)C)C(C)(C)C)c1cc(-n2c(=O)cc(C(F)(F)F)n(C)c2=O)c(F)cc1Cl [Compound 5-6, 2-chloro-5-(3,6-dihydro-3-methyl-2,6-dioxo-4-(trifluoromethyl)-1(2H)-pyrimidinyl)-N-[1-(1,1-dimethylethyl)-2,2-dimethylpropylidene]-4-fluoro-benzenecarbohydrazonic Acid Methyl Ester]
phytotoxicity rating CHEAL ([1]; 63 g ai/ha): 100 | phytotoxicity rating CHEAL ([1]; 250 g ai/ha): 100 | phytotoxicity rating DIGSA ([2]; 63 g ai/ha): 20 | phytotoxicity rating DIGSA ([2]; 250 g ai/ha): 99 | phytotoxicity rating SETVI ([3]; 63 g ai/ha): 95 | phytotoxicity rating SETVI ([3]; 250 g ai/ha): 100 | phytotoxicity rating IPOHE ([4]; 63 g ai/ha): 35 | phytotoxicity rating IPOHE ([4]; 250 g ai/ha): 70 | phytotoxicity rating ABUTH ([5]; 63 g ai/ha): 75 | phytotoxicity rating ABUTH ([5]; 250 g ai/ha): 95 | phytotoxicity rating SORHA ([6]; 63 g ai/ha): 25 | phytotoxicity rating SORHA ([6]; 250 g ai/ha): 100 | phytotoxicity rating ECHCG ([7]; 63 g ai/ha): 40 | phytotoxicity rating ECHCG ([7]; 250 g ai/ha): 90 | phytotoxicity rating AMBEL ([8]; 63 g ai/ha): 35 | phytotoxicity rating AMBEL ([8]; 250 g ai/ha): 99 | phytotoxicity rating XANST ([9]; 63 g ai/ha): 0 | phytotoxicity rating XANST ([9]; 250 g ai/ha): 10 | phytotoxicity rating AMARE ([10]; 63 g ai/ha): 100 | phytotoxicity rating AMARE ([10]; 250 g ai/ha): 100 | phytotoxicity rating CASOB ([11]; 63 g ai/ha): 40 | phytotoxicity rating CASOB ([11]; 250 g ai/ha): 98 | phytotoxicity rating CHEAL ([12]; 63 g ai/ha): 100 | phytotoxicity rating CHEAL ([12]; 250 g ai/ha): 100 | phytotoxicity rating DIGSA ([13]; 63 g ai/ha): 20 | phytotoxicity rating DIGSA ([13]; 250 g ai/ha): 99 | phytotoxicity rating SETVI ([14]; 63 g ai/ha): 95 | phytotoxicity rating SETVI ([14]; 250 g ai/ha): 100 | phytotoxicity rating IPOHE ([15]; 63 g ai/ha): 35 | phytotoxicity rating IPOHE ([15]; 250 g ai/ha): 70 | phytotoxicity rating ABUTH ([16]; 63 g ai/ha): 75 | phytotoxicity rating ABUTH ([16]; 250 g ai/ha): 95 | phytotoxicity rating SORHA ([17]; 63 g ai/ha): 25 | phytotoxicity rating SORHA ([17]; 250 g ai/ha): 100 | phytotoxicity rating ECHCO ([18]; 63 g ai/ha): 40 | phytotoxicity rating ECHCO ([18]; 250 g ai/ha): 90 | phytotoxicity rating AMBEL ([19]; 63 g ai/ha): 35 | phytotoxicity rating AMBEL ([19]; 250 g ai/ha): 99 | phytotoxicity rating XANST ([20]; 63 g ai/ha): 0 | phytotoxicity rating XANST ([20]; 250 g ai/ha): 10 | phytotoxicity rating AMARE [21, 23]: 100 | phytotoxicity rating AMARE ([21]; 250 g ai/ha, scale 0-100): 100 | phytotoxicity rating CASOB ([22]; 63 g ai/ha): 40 | phytotoxicity rating CASOB ([22]; 250 g ai/ha): 98

Cn1c(C(F)(F)F)cc(=O)n(-c2cc(C(=O)NN=C(C(C)(C)C)C(C)(C)C)c(Cl)cc2F)c1=O [Compound 6-4, 2-chloro-5-(3,6-dihydro-3-methyl-2,6-dioxo-4-(trifluoromethyl)-1(2H)-pyrimidinyl)-4-fluoro-benzoic acid, 2-[1-(1,1-dimethylethyl)-2,2-dimethylpropylidene]hydrazide]
phytotoxicity rating CHEAL ([1]; 63 g ai/ha): 100 | phytotoxicity rating CHEAL ([1]; 250 g ai/ha): 100 | phytotoxicity rating DIGSA ([2]; 63 g ai/ha): 100 | phytotoxicity rating DIGSA ([2]; 250 g ai/ha): 100 | phytotoxicity rating SETVI ([3]; 63 g ai/ha): 100 | phytotoxicity rating SETVI ([3]; 250 g ai/ha): 100 | phytotoxicity rating IPOHE ([4]; 63 g ai/ha): 100 | phytotoxicity rating IPOHE ([4]; 250 g ai/ha): 100 | phytotoxicity rating ABUTH ([5]; 63 g ai/ha): 100 | phytotoxicity rating ABUTH ([5]; 250 g ai/ha): 100 | phytotoxicity rating SORHA ([6]; 63 g ai/ha): 99 | phytotoxicity rating SORHA ([6]; 250 g ai/ha): 100 | phytotoxicity rating ECHCG ([7]; 63 g ai/ha): 98 | phytotoxicity rating ECHCG ([7]; 250 g ai/ha): 100 | phytotoxicity rating AMBEL ([8]; 63 g ai/ha): 100 | phytotoxicity rating AMBEL ([8]; 250 g ai/ha): 100 | phytotoxicity rating XANST ([9]; 63 g ai/ha): 98 | phytotoxicity rating XANST ([9]; 250 g ai/ha): 100 | phytotoxicity rating AMARE ([10]; 63 g ai/ha): 100 | phytotoxicity rating AMARE ([10]; 250 g ai/ha): 100 | phytotoxicity rating CASOB ([11]; 63 g ai/ha): 98 | phytotoxicity rating CASOB ([11]; 250 g ai/ha): 100 | phytotoxicity rating CHEAL ([12]; 63 g ai/ha): 100 | phytotoxicity rating CHEAL ([12]; 250 g ai/ha): 100 | phytotoxicity rating DIGSA ([13]; 63 g ai/ha): 50 | phytotoxicity rating DIGSA ([13]; 250 g ai/ha): 70 | phytotoxicity rating SETVI ([14]; 63 g ai/ha): 85 | phytotoxicity rating SETVI ([14]; 250 g ai/ha): 100 | phytotoxicity rating IPOHE ([15]; 63 g ai/ha): 100 | phytotoxicity rating IPOHE ([15]; 250 g ai/ha): 100 | phytotoxicity rating ABUTH ([16]; 63 g ai/ha): 100 | phytotoxicity rating ABUTH ([16]; 250 g ai/ha): 100 | phytotoxicity rating SORHA ([17]; 63 g ai/ha): 75 | phytotoxicity rating SORHA ([17]; 250 g ai/ha): 100 | phytotoxicity rating ECHCO ([18]; 63 g ai/ha): 80 | phytotoxicity rating ECHCO ([18]; 250 g ai/ha): 100 | phytotoxicity rating AMBEL ([19]; 63 g ai/ha): 75 | phytotoxicity rating AMBEL ([19]; 250 g ai/ha): 100 | phytotoxicity rating XANST ([20]; 63 g ai/ha): 100 | phytotoxicity rating XANST ([20]; 250 g ai/ha): 100 | phytotoxicity rating AMARE [21, 23]: 100 | phytotoxicity rating AMARE ([21]; 250 g ai/ha, scale 0-100): 100 | phytotoxicity rating CASOB ([22]; 63 g ai/ha): 99 | phytotoxicity rating CASOB ([22]; 250 g ai/ha): 95
